Patent US7989649B2, “Tumor imaging compounds” (Emory University, priority 2002, dated 2011)

Key:
[1] = Rodent biodistribution study in normal Fischer rats; type: in vivo, rat; conditions: for Tissue distribution of radioactivity, Blood / Tissue distribution of radioactivity, Bone / Tissue distribution of radioactivity, Brain / Tissue distribution of radioactivity, Heart / Tissue distribution of radioactivity, Kidney / Tissue distribution of radioactivity, Liver / Tissue distribution of radioactivity, Lung / Tissue distribution of radioactivity, Muscle / Tissue distribution of radioactivity, Pancreas / Tissue distribution of radioactivity, Spleen / Tissue distribution of radioactivity, Testis: normal Fischer rats
Description: Rodent biodistribution studies. The same procedures were used to evaluate [^18F]5a and [^18F]5b separately in rodents. The tissue distribution of radioactivity was determined in 16 normal male Fischer 344 rats (200-250 g) after intravenous injection of ˜85 μCi of [^18F]5a or [^18F]5b in 0.3 mL of sterile water. The animals were allowed food and water ad libitum before the experiment. Following anesthesia induced with an intramuscular injection of 0.1 mL/100 g of a 1:1 ketamine ([…]):xylazine (20 mg/mL) solution, the radiolabeled amino acid was injected into the rats via tail vein catheters. Groups of four rats were killed at 5 minutes, 30 minutes, 60 minutes and 120 minutes after injection of the dose. The animals were dissected, and selected tissues were weighed and counted along with dose standards in a Packard Cobra II Auto-Gamma Counter. The raw counts were decay corrected, and the counts were normalized as the percent of total injected dose per gram of tissue (% ID/g). A comparison of the uptake of activity in the tissues at each time point was analyzed using a 1-way ANOVA (GraphPad Prism software package).

9 L gliosarcoma tumor = test: Biodistribution in Fischer rats with intracranial 9 L gliosarcoma tumor; type: in vivo; conditions: tumor-bearing Fischer rats; for Tissue distribution of radioactivity, Brain: normal brain contralateral to tumor
Description: Tumor induction and animal preparation. All animal experiments were carried out under humane conditions and were approved by the Institutional Animal Use and Care Committee (IUCAC) at Emory University. Rat 9 L gliosarcoma cells were implanted into the brains of male Fischer rats as described previously [Shoup, T M et al. (1999), J. Nucl. Med. 40:331-338]. Briefly, anesthetized rats placed in a stereotactic head holder were injected with a suspension of 4×10^4 rat 9 L gliosarcoma cells (1×10^7 per mL) in a location 3 mm right of midline and 1 mm anterior to the bregma at a depth of 5 mm deep to the outer table. The injection was performed over the course of 2 minutes, and the needle was withdrawn over the course of 1 minute to minimize the backflow of tumor cells. The burr hole and scalp incision were closed, and the animals were returned to their original colony after recovering from the procedure. Intracranial tumors developed that produced weight loss, apathy and hunched posture in the tumor-bearing rats, and the animals were used at 17-19 days after implantation. Of the 30 animals implanted with tumor cells, 25 developed tumors visible to the naked eye upon dissection and were used in the study.
The tissue distribution of radioactivity was also determined in tumor-bearing Fischer 344 rats following intravenous injection of ˜35 μCi of [^18F]5a or [^18F]5b in 0.3 mL of sterile water. The procedure was similar to that already described for normal rats with the following modifications. The tail vein injections were performed in awake animals using a RTV-190 rodent restraint device (Braintree Scientific) to avoid mortality accompanying anesthesia in the presence of an intracranial mass. The animals were killed at 5 minutes, 60 minutes or 120 minutes post-injection. The same tissues were assayed as in normal rats with the addition of the tumor tissue, and the corresponding region of brain contralateral to the tumor was excised and used for comparison. The uptake in the tumor and contralateral brain at each time point was compared via a two-tailed t-test for paired observations (GraphPad Prism software package).

[2] = 5 min after injection, listed as [^18F]N-MeFAMP (5b)
[3] = 60 min after injection, listed as [^18F]N-MeFAMP (5b)
[4] = 120 min after injection, listed as [^18F]N-MeFAMP (5b)

CNC(C)(CF)C(=O)O (racemic) [[^18F]5b, 3-fluoro-2-methyl-2-(methylamino)propanoic acid]
Tissue distribution of radioactivity, Blood ([1]; 5 min after injection): 0.61 ± 0.02 percent dose per gram
Tissue distribution of radioactivity, Bone ([1]; 5 min after injection): 0.34 ± 0.04 percent dose per gram
Tissue distribution of radioactivity, Brain ([1]; 5 min after injection): 0.04 ± 0.005 percent dose per gram
Tissue distribution of radioactivity, Heart ([1]; 5 min after injection): 0.22 ± 0.01 percent dose per gram
Tissue distribution of radioactivity, Kidney ([1]; 5 min after injection): 8.12 percent dose per gram
Tissue distribution of radioactivity, Liver ([1]; 5 min after injection): 0.79 ± 0.06 percent dose per gram
Tissue distribution of radioactivity, Lung ([1]; 5 min after injection): 0.53 ± 0.03 percent dose per gram
Tissue distribution of radioactivity, Muscle ([1]; 5 min after injection): 0.16 ± 0.008 percent dose per gram
Tissue distribution of radioactivity, Pancreas ([1]; 5 min after injection): 2.73 percent dose per gram
Tissue distribution of radioactivity, Spleen ([1]; 5 min after injection): 0.44 ± 0.06 percent dose per gram
Tissue distribution of radioactivity, Testis ([1]; 5 min after injection): 0.17 ± 0.004 percent dose per gram
Tissue distribution of radioactivity, Kidney [1, 2]: 8.12 ± 0.62 percent dose per gram
Tissue distribution of radioactivity, Pancreas [1, 2]: 2.73 ± 0.28 percent dose per gram
Tissue distribution of radioactivity, Blood ([1]; 30 min after injection): 0.30 ± 0.003 percent dose per gram
Tissue distribution of radioactivity, Bone ([1]; 30 min after injection): 0.32 ± 0.04 percent dose per gram
Tissue distribution of radioactivity, Brain ([1]; 30 min after injection): 0.04 ± 0.004 percent dose per gram
Tissue distribution of radioactivity, Heart ([1]; 30 min after injection): 0.23 ± 0.03 percent dose per gram
Tissue distribution of radioactivity, Kidney ([1]; 30 min after injection): 4.60 ± 0.70 percent dose per gram
Tissue distribution of radioactivity, Liver ([1]; 30 min after injection): 0.72 ± 0.09 percent dose per gram
Tissue distribution of radioactivity, Lung ([1]; 30 min after injection): 0.50 ± 0.07 percent dose per gram
Tissue distribution of radioactivity, Muscle ([1]; 30 min after injection): 0.16 ± 0.003 percent dose per gram
Tissue distribution of radioactivity, Pancreas ([1]; 30 min after injection): 3.00 ± 0.23 percent dose per gram
Tissue distribution of radioactivity, Spleen ([1]; 30 min after injection): 0.75 ± 0.06 percent dose per gram
Tissue distribution of radioactivity, Testis ([1]; 30 min after injection): 0.11 ± 0.005 percent dose per gram
Tissue distribution of radioactivity, Blood ([1]; 60 min after injection): 0.18 ± 0.02 percent dose per gram
Tissue distribution of radioactivity, Bone ([1]; 60 min after injection): 0.29 ± 0.04 percent dose per gram
Tissue distribution of radioactivity, Brain ([1]; 60 min after injection): 0.03 ± 0.003 percent dose per gram
Tissue distribution of radioactivity, Heart ([1]; 60 min after injection): 0.20 ± 0.02 percent dose per gram
Tissue distribution of radioactivity, Kidney ([1]; 60 min after injection): 2.73 ± 0.35 percent dose per gram
Tissue distribution of radioactivity, Liver ([1]; 60 min after injection): 0.78 ± 0.10 percent dose per gram
Tissue distribution of radioactivity, Lung ([1]; 60 min after injection): 0.38 ± 0.07 percent dose per gram
Tissue distribution of radioactivity, Muscle ([1]; 60 min after injection): 0.15 ± 0.007 percent dose per gram
Tissue distribution of radioactivity, Pancreas ([1]; 60 min after injection): 3.24 ± 0.30 percent dose per gram
Tissue distribution of radioactivity, Spleen ([1]; 60 min after injection): 0.68 ± 0.02 percent dose per gram
Tissue distribution of radioactivity, Testis ([1]; 60 min after injection): 0.08 ± 0.005 percent dose per gram
Tissue distribution of radioactivity, Blood ([1]; 120 min after injection): 0.10 ± 0.007 percent dose per gram
Tissue distribution of radioactivity, Bone ([1]; 120 min after injection): 0.20 ± 0.02 percent dose per gram
Tissue distribution of radioactivity, Brain ([1]; 120 min after injection): 0.03 ± 0.001 percent dose per gram
Tissue distribution of radioactivity, Heart ([1]; 120 min after injection): 0.17 ± 0.02 percent dose per gram
Tissue distribution of radioactivity, Kidney ([1]; 120 min after injection): 1.36 ± 0.27 percent dose per gram
Tissue distribution of radioactivity, Liver ([1]; 120 min after injection): 0.58 ± 0.11 percent dose per gram
Tissue distribution of radioactivity, Lung ([1]; 120 min after injection): 0.30 ± 0.08 percent dose per gram
Tissue distribution of radioactivity, Muscle ([1]; 120 min after injection): 0.13 ± 0.007 percent dose per gram
Tissue distribution of radioactivity, Pancreas ([1]; 120 min after injection): 2.88 ± 0.40 percent dose per gram
Tissue distribution of radioactivity, Spleen ([1]; 120 min after injection): 0.47 ± 0.04 percent dose per gram
Tissue distribution of radioactivity, Testis ([1]; 120 min after injection): 0.06 ± 0.005 percent dose per gram
brain uptake of radioactivity ([1]; normal rats, all time points): approximately 0.04 % ID/g
Tissue distribution of radioactivity, Blood (9 L gliosarcoma tumor; 5 min after injection): 0.69 ± 0.04 percent dose per gram
Tissue distribution of radioactivity, Bone (9 L gliosarcoma tumor; 5 min after injection): 0.33 ± 0.04 percent dose per gram
Tissue distribution of radioactivity, Heart (9 L gliosarcoma tumor; 5 min after injection): 0.34 ± 0.02 percent dose per gram
Tissue distribution of radioactivity, Kidney (9 L gliosarcoma tumor; 5 min after injection): 9.33 ± 0.36 percent dose per gram
Tissue distribution of radioactivity, Liver (9 L gliosarcoma tumor; 5 min after injection): 0.94 ± 0.12 percent dose per gram
Tissue distribution of radioactivity, Lung (9 L gliosarcoma tumor; 5 min after injection): 0.61 ± 0.04 percent dose per gram
Tissue distribution of radioactivity, Muscle (9 L gliosarcoma tumor; 5 min after injection): 0.22 ± 0.011 percent dose per gram
Tissue distribution of radioactivity, Pancreas (9 L gliosarcoma tumor; 5 min after injection): 2.95 ± 0.58 percent dose per gram
Tissue distribution of radioactivity, Spleen (9 L gliosarcoma tumor; 5 min after injection): 0.47 ± 0.04 percent dose per gram
Tissue distribution of radioactivity, Testis (9 L gliosarcoma tumor; 5 min after injection): 0.19 ± 0.008 percent dose per gram
Tissue distribution of radioactivity, Tumor (9 L gliosarcoma tumor; 5 min after injection): 1.29 percent dose per gram
Tissue distribution of radioactivity, Tumor (9 L gliosarcoma tumor; [2]): 1.29 ± 0.28 percent dose per gram
Tissue distribution of radioactivity, Blood (9 L gliosarcoma tumor; 60 min after injection): 0.17 ± 0.02 percent dose per gram
Tissue distribution of radioactivity, Bone (9 L gliosarcoma tumor; 60 min after injection): 0.23 ± 0.04 percent dose per gram
Tissue distribution of radioactivity, Heart (9 L gliosarcoma tumor; 60 min after injection): 0.25 ± 0.03 percent dose per gram
Tissue distribution of radioactivity, Kidney (9 L gliosarcoma tumor; 60 min after injection): 2.79 ± 0.31 percent dose per gram
Tissue distribution of radioactivity, Liver (9 L gliosarcoma tumor; 60 min after injection): 0.85 ± 0.17 percent dose per gram
Tissue distribution of radioactivity, Lung (9 L gliosarcoma tumor; 60 min after injection): 0.26 ± 0.03 percent dose per gram
Tissue distribution of radioactivity, Muscle (9 L gliosarcoma tumor; 60 min after injection): 0.19 ± 0.02 percent dose per gram
Tissue distribution of radioactivity, Pancreas (9 L gliosarcoma tumor; 60 min after injection): 2.42 ± 0.27 percent dose per gram
Tissue distribution of radioactivity, Spleen (9 L gliosarcoma tumor; 60 min after injection): 0.45 ± 0.06 percent dose per gram
Tissue distribution of radioactivity, Testis (9 L gliosarcoma tumor; 60 min after injection): 0.08 ± 0.008 percent dose per gram
Tissue distribution of radioactivity, Tumor (9 L gliosarcoma tumor; 60 min after injection): 2.28 percent dose per gram
Tissue distribution of radioactivity, Tumor (9 L gliosarcoma tumor; [3]): 2.28 ± 0.16 percent dose per gram
Tissue distribution of radioactivity, Blood (9 L gliosarcoma tumor; 120 min after injection): 0.10 ± 0.007 percent dose per gram
Tissue distribution of radioactivity, Bone (9 L gliosarcoma tumor; 120 min after injection): 0.19 ± 0.02 percent dose per gram
Tissue distribution of radioactivity, Heart (9 L gliosarcoma tumor; 120 min after injection): 0.19 ± 0.02 percent dose per gram
Tissue distribution of radioactivity, Kidney (9 L gliosarcoma tumor; 120 min after injection): 1.59 ± 0.19 percent dose per gram
Tissue distribution of radioactivity, Liver (9 L gliosarcoma tumor; 120 min after injection): 0.41 ± 0.06 percent dose per gram
Tissue distribution of radioactivity, Lung (9 L gliosarcoma tumor; 120 min after injection): 0.19 ± 0.011 percent dose per gram
Tissue distribution of radioactivity, Muscle (9 L gliosarcoma tumor; 120 min after injection): 0.16 ± 0.012 percent dose per gram
Tissue distribution of radioactivity, Pancreas (9 L gliosarcoma tumor; 120 min after injection): 1.74 ± 0.24 percent dose per gram
Tissue distribution of radioactivity, Spleen (9 L gliosarcoma tumor; 120 min after injection): 0.40 ± 0.02 percent dose per gram
Tissue distribution of radioactivity, Testis (9 L gliosarcoma tumor; 120 min after injection): 0.08 ± 0.005 percent dose per gram
Tissue distribution of radioactivity, Tumor (9 L gliosarcoma tumor; 120 min after injection): 1.94 percent dose per gram
Tissue distribution of radioactivity, Tumor (9 L gliosarcoma tumor; [4]): 1.94 ± 0.12 percent dose per gram
Tissue distribution of radioactivity, Brain (9 L gliosarcoma tumor; 5 min after injection): 0.032 ± 0.002 percent dose per gram
Tissue distribution of radioactivity, Brain (9 L gliosarcoma tumor; 60 min after injection): 0.022 percent dose per gram
Tissue distribution of radioactivity, Brain (9 L gliosarcoma tumor; [3]): 0.022 ± 0.006 percent dose per gram
Tissue distribution of radioactivity, Brain (9 L gliosarcoma tumor; 120 min after injection): 0.020 percent dose per gram
Tissue distribution of radioactivity, Brain (9 L gliosarcoma tumor; [4]): 0.020 ± 0.005 percent dose per gram
